The values that follow come from patent US9464058B2 (Hoffmann-La Roche Inc., priority 2012, dated 2016).

The target of one test is T1, human CYP11B1 (Homo sapiens, UniProt P15538).
T1 construct: expressed in transfected cells
T1 sequence (P15538 25-503): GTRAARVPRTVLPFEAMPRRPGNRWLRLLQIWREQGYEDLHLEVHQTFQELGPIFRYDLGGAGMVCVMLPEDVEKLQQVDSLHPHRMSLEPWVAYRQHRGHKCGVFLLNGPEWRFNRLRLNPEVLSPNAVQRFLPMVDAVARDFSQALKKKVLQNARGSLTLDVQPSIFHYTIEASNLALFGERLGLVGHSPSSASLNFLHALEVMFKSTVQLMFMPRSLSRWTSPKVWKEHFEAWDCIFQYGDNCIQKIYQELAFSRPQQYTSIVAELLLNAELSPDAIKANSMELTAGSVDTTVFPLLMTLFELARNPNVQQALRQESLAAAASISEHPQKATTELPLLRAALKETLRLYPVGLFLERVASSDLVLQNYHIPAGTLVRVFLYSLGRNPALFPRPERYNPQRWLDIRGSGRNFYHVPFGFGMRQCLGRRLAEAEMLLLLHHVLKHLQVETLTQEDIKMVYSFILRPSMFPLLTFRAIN
Nature of the test: G-402 cellular enzyme assay, human CYP11B1 (cortisol release, HTRF). Conditions: G-402 cells expressing human CYP11B1; 1 μM Deoxycortisol; 16 h. It is filed as cell-based. The gist of the method:
(§1)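 G-402 cells stably expressing human CYP11B2 or CYP11B1, incubated 16 h with compound in DMEM/F12 with 2.5% charcoal-treated FCS plus 1 μM deoxycorticosterone (CYP11B2) or 1 μM deoxycortisol (CYP11B1). Aldosterone or cortisol in supernatant measured by HTRF; EC50 from 4-parameter MMF fit.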
Background: In TR-FRET formats the signal depends on donor and acceptor labels being close together.

The target in a further test is T2, human CYP11B2 (Homo sapiens, UniProt P19099).
T2 construct: expressed in transfected cells
T2 sequence (P19099 25-503): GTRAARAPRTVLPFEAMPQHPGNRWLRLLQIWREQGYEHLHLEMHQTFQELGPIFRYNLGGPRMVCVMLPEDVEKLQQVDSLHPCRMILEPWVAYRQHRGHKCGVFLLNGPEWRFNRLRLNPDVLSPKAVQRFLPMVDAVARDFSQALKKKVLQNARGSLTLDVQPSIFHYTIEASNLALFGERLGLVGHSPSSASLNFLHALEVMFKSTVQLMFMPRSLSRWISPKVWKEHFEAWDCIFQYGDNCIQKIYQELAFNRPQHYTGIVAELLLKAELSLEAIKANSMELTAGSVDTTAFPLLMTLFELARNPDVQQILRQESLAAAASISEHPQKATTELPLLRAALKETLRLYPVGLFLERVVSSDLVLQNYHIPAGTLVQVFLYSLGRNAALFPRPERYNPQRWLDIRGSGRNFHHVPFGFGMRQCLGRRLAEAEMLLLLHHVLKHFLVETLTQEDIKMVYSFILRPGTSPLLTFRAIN
As to the kind of experiment: G-402 cellular enzyme assay, human CYP11B2 (aldosterone release, HTRF). It is filed as cell-based. Conditions: G-402 cells expressing human CYP11B2; 1 μM Deoxycorticosterone; 16 h. The gist of the method: as §1

In test [1] the test system is rat model of chronic kidney disease. The settings on record: rat CKD model, cited from earlier work; for renal effects (albuminuria, azotemia, renovascular hypertrophy, glomerular injury, PAI-1 and osteopontin mRNA, tubulointerstitial fibrosis): angiotensin II and high salt.
For test [2], the system named is rats with experimental heart failure. The settings on record: cited from earlier work.
In test [3] the test system is patients with primary aldosteronism. The settings on record: oral; cited from earlier work.

One may read the EC50 as the midpoint of the concentration-response curve. High values mean weaker potency, low ones greater potency. With `CCn1cncc1C(=O)c1ccc(N(C)C(=O)OC(C)(C)C)cc1` [Example 88, [4-(3-Ethyl-3H-imidazole-4-carbonyl)-phenyl]-methyl-carbamic acid tert-butyl ester], the EC50 at human CYP11B1 came out at 1290 nM; on human CYP11B2, 2200 nM.
As for `CCn1cncc1C(=O)c1ccc(N(C)C=O)cc1` [Example 89, N-[4-(3-Ethyl-3H-imidazole-4-carbonyl)-phenyl]-N-methyl-formamide], the values for the EC50 at human CYP11B1 and on human CYP11B2 were 744 nM and 29.4 nM, respectively.
For `O=C(c1ccc(Cl)cc1)c1cncn1-c1ccc(Cl)cc1` [Example 90, (4-Chloro-phenyl)-[3-(4-chloro-phenyl)-3H-imidazol-4-yl]-methanone], the figures for the concentration giving a half-maximal response (EC50) on human CYP11B1 and on human CYP11B2 were 3620 nM and 2.6 nM, respectively.
The corresponding values for `O=C(c1ccc(Cl)c(Cl)c1)c1cncn1-c1ccc(Cl)cc1` [Example 91, [3-(4-Chloro-phenyl)-3H-imidazol-4-yl]-(3,4-dichloro-phenyl)-methanone] are 439 nM and 4.2 nM.
For the molecule `O=C(c1ccc(Cl)c(F)c1)c1cncn1-c1ccc(Cl)cc1` [Example 92, (4-Chloro-3-fluoro-phenyl)-[3-(4-chloro-phenyl)-3H-imidazol-4-yl]-methanone], the EC50 is 132 nM on human CYP11B1 and 3.2 nM on human CYP11B2.
The corresponding values for `CC(C)n1cncc1C(=O)c1ccc(N(C)C=O)cc1` [Example 93, N-[4-(3-Isopropyl-3H-imidazole-4-carbonyl)-phenyl]-N-methyl-formamide] are 349 nM and 11.7 nM.
On to `N#Cc1ccc(-n2cncc2C(=O)c2ccc(Cl)c(F)c2)cc1` [Example 94, 4-[5-(4-Chloro-3-fluoro-benzoyl)-imidazol-1-yl]-benzonitrile], for which the EC50 at human CYP11B1 amounted to 84.6 nM; on human CYP11B2, 14.4 nM.
`N#Cc1ccc(-n2cncc2C(=O)c2ccc(Cl)cc2)cc1` [Example 95, 4-[5-(4-Chloro-benzoyl)-imidazol-1-yl]-benzonitrile]: the figures for the EC50 at human CYP11B1 and on human CYP11B2 were 71.8 nM and 2.2 nM, respectively.
In the case of `N#Cc1ccc(-n2cncc2C(=O)c2ccc(Cl)c(Cl)c2)cc1` [Example 96, 4-[5-(3,4-Dichloro-benzoyl)-imidazol-1-yl]-benzonitrile], the EC50 on human CYP11B1 amounted to 199 nM; at human CYP11B2, 5.6 nM.
Turning to `O=C(c1ccc(F)c(F)c1)c1cncn1-c1ccc(Cl)cc1` [Example 97, [3-(4-Chloro-phenyl)-3H-imidazol-4-yl]-(3,4-difluoro-phenyl)-methanone], the EC50 came to 74.6 nM at human CYP11B1 and 3.4 nM on human CYP11B2.
With `N#Cc1ccc(C2CCCc3cncn32)cc1` (stereo not drawn) [FAD286], the plasma aldosterone result in test [1] (4 weeks of treatment) is on record as “reduced”. Moreover, in test [1], the “renal effects (albuminuria, azotemia, renovascular hypertrophy, glomerular injury, PAI-1 and osteopontin mRNA, tubulointerstitial fibrosis)” value is recorded as “prevented”; the “angiotensin II and salt-stimulated PAI-1 mRNA expression in the aorta and the heart” value was “not”; the “cardiac and aortic medial hypertrophy” value is “attenuated”. In addition, in test [2], the “blood pressure and cardiovascular function and structure” value is reported as “improved”; the “kidney function and morphology” value is reported as “improve”.
With `N#Cc1ccc([C@H]2CCc3cncn32)c(F)c1` [LCI699], in test [3], the blood pressure result is recorded as “mildly decreased”, the circulating aldosterone levels entry was “significantly lower” and the hypokalemia entry is listed as “corrected”.
On to `CC(=O)S[C@@H]1CC2=CC(=O)CC[C@]2(C)[C@H]2CC[C@@]3(C)[C@@H](CC[C@@]34CCC(=O)O4)[C@H]12` [spironolactone], for which, in test [1], the “renal effects (albuminuria, azotemia, renovascular hypertrophy, glomerular injury, PAI-1 and osteopontin mRNA, tubulointerstitial fibrosis)” value is “prevented”; the “angiotensin II and salt-stimulated PAI-1 mRNA expression in the aorta and the heart” value is “enhanced”; the “cardiac and aortic medial hypertrophy” value is on record as “attenuated”. For the same molecule, in test [1] (at 4 and 8 weeks of treatment), the aldosterone result is reported as “increased”.
